The values that follow come from ChEMBL document CHEMBL1135146, “8-Methoxyquinoline-5-carboxamides as PDE4 inhibitors: a potential treatment for asthma” (Bioorg Med Chem Lett, 2002).

Data set [1] addresses Phosphodiesterase 4 (Homo sapiens, UniProt P27815+Q08499+Q07343+Q08493). Nature of the data set: Inhibition of Phosphodiesterase 4 (PDE-4) from human U937 cells. The class given is cell-based. The note with it: u-937.
The target of data set [2] is Phosphodiesterase 3 (Homo sapiens) (UniProt Q14432+Q13370). Nature of the data set: Inhibition of Phosphodiesterase 3 (PDE3) from human platelet at 20 uM.
Data set [3] is described as follows: Tested for the half life period of the compound, intravenously. The class given is ADME, organism-based, Cavia porcellus. The note with it: guinea pig, in vivo, iv.
Data set [4] is described as follows: Tested for the pharmacokinetic parameter in guinea pig, administered orally at 5 mg/kg. The class given is ADME, organism-based, Cavia porcellus. Also noted: dose 5 mg/kg, route oral. To be noted: in vivo, po.
The nature of data set [5]: Tested for the oral bioavailability of the compound. Format: ADME, organism-based, Cavia porcellus. The note with it: guinea pig, in vivo, read-out: Bioavailabiility.
Data set [6] can be described thus: Compound at a dose 5 mg/kg was administered orally to guinea pig and the pharmacokinetic parameter (Cmax) was reported. Also noted: dose 5 mg/kg, route oral. To be noted: in vivo, po. Format: ADME, organism-based, Cavia porcellus.

Broadly, the IC50 is the concentration needed to halve the response being measured. Low values mean inhibition by little substance, high ones a need for much substance. In turn, `COc1ccc(C(=O)Nc2c(Cl)cncc2Cl)c2c1nc(C(C)=O)n2C` yielded an IC50 in data set [1] of 480 nM. This lies in the sub-micromolar range.

For `COc1ccc(C(=O)Nc2c(Cl)cncc2Cl)c2cc(C(C)=O)oc12`, in data set [1], the IC50 came to 1 nM.

What is called inhibition is the relative decrease from the control value, in per cent. The low end stands for little suppression, the high end for strong suppression. Take `COc1ccc(C(=O)Nc2c(Cl)cncc2Cl)c2[nH]c(C(F)(F)F)nc12`: the inhibition in data set [2] stood at 43%. In data set [1], this molecule registered a half-maximal inhibitory concentration (IC50) of 120 nM.

On to `COc1ccc(C(=O)Nc2ccncc2Cl)c2cccnc12`, for which, in data set [1], the IC50 is 110 nM.

One may read the half-life as the time in which the quantity being followed falls by half. Read a high half-life as slow decline. The AUC is the area under the concentration-time curve, a measure of exposure. A lower AUC goes with low exposure. As a reminder, the Cmax is the maximum level reached in the sampled fluid or tissue. `COc1ccc(C(=O)Nc2c(Cl)cncc2Cl)c2cccnc12` gave a half-life in data set [3] of 36 min. In data set [4], this molecule yielded an area under the curve (AUC) of 925 ng·h/mL. In addition, the bioavailability in data set [5] stood at 62%. The same molecule yielded an IC50 in data set [1] of 170 nM. Further, in data set [6], the Cmax was 473 ng/mL.

The molecule `COc1ccc(C(=O)Nc2ccncc2)c2cccnc12` returned an IC50 in data set [1] of 1900 nM.

`COc1ccc(C(=O)Nc2c(Cl)cncc2Cl)c2c1nc(C(F)(F)F)n2C` registered an inhibition in data set [2] of 11%. This molecule also displayed an IC50 in data set [1] of 290 nM.
